Reference: patent publication US20230414611A1, “REFINED USES OF GABA A RECEPTOR MODULATORS IN TREATMENT OF FRAGILE X SYNDROME” (CHILDREN'S HOSPITAL MEDICAL CENTER, priority 2020, published 2023)
Entries after “also recorded” stand apart in the source; their conditions may differ.

What was measured:
Format in all cases: in vivo, human
[1] = tested on: adults with Fragile X Syndrome (FXS); experiment: Aberrant Behavior Checklist (ABC / ABC-C subscales); conditions: for ABC_C_Subscale_1 Irritability / ABC_C_Subscale_2 Lethargy / ABC_C_Subscale_3 Stereotypy / ABC_C_Subscale_4 Hyperactivity / ABC_C_Subscale_5 Inappropriate Speech: undetectable FMRP males (n=5), mean ± SD
Description: Secondary Outcome Measures: • Change in the social withdrawal subscale score of the Aberrant Behavior Checklist (ABC) through the end of the study, approximately 12 weeks. The ABC is the gold standard parent/caregiver reported behavioral outcome measure for use in development disability clinical trials. • Change in the Pediatric Anxiety Rating Scale (PARS) through the end of the study, approximately 12 weeks. The PARS is the gold standard parent/caregiver reported anxiety outcome measure for use in Fragile X Syndrome clinical trials.
The Aberrant Behavior Checklist (ABC) is a standardized rating scale used for assessing problematic behavior designed for use in developmental disabilities, with validity for use in FXS (CITE). ABC-C is the original factor structure with 5 subscales: Irritability, Lethargy, Stereotypy, Hyperactivity, and Inappropriate Speech. See, e.g., Aman et al., J. Child Adolesc Psychopharmacol. 30(8):512-521 (2020), the relevant disclosures of which are incorporated by reference for the subject matter and purpose referenced herein. ABC was only assessed chronically (two weeks after treatment). Overall, no indication that ABC changed during chronic phase.

[2] = tested on: adults with Fragile X Syndrome (FXS); experiment: WJ auditory attention; conditions: FMRP-present male patients
[3] = tested on: adults with Fragile X Syndrome (FXS); experiment: Clinical response and adverse effects by peripheral FMRP status
Protocol: This study aims at investigating the safety, tolerability, and blood pharmacodynamics of treatment with oral administration of AZD7325 in adults with Fragile X Syndrome (FXS). This study also investigates measures of efficacy and biomarkers during treatment.
The treatment conditions are provided Table 2 below:
Peripheral levels FMRP proteins in the patients were measured by an immunoassay using an antibody specific to FMRP. A fair percentage of males with FXS show mosaicism or a mix of […] and mutation cells. FIG. 3. Peripheral blood FMRP levels from the study participants are shown in Table 4 below (measured using dried blood spot samples using Luminex® Assay; see Example 3 below). The levels of FMRP measured using dried blood spot as disclosed herein are estimated to be about 7 folds higher than the FMRP levels in the blood of the same patient.

[4] = low dose, patients having detectable peripheral FMRP

## CCCNC(=O)c1nnc2c(-c3c(F)cccc3OC)cccc2c1N [AZD7325, 4-amino-8-(2-fluoro-6-methoxyphenyl)-N-propylcinnoline-3-carboxamide]
[1]; [4]
  ABC lethargy and social withdrawal: increases
[1]; low dose, patients having undetectable peripheral FMRP
  ABC lethargy and social withdrawal: reduction; also recorded: reduces
[1]; low dose, regardless of FMRP status (trending), baseline to chronic
  ABC irritability: reduction; also recorded: reduces
[1]; high dose, baseline
  ABC_C_Subscale_1 Irritability: 7.6 ± 7.44
  ABC_C_Subscale_2 Lethargy: 3.2 ± 3.11
  ABC_C_Subscale_3 Stereotypy: 5.0 ± 1.87
  ABC_C_Subscale_4 Hyperactivity: 9.4 ± 10.74
  ABC_C_Subscale_5 Inappropriate Speech: 5.6 ± 4.56
[1]; high dose, chronic
  ABC_C_Subscale_1 Irritability: 7.2 ± 5.36
  ABC_C_Subscale_2 Lethargy: 1.8 ± 1.48
  ABC_C_Subscale_3 Stereotypy: 3.4 ± 0.55
  ABC_C_Subscale_4 Hyperactivity: 7.0 ± 9.06
  ABC_C_Subscale_5 Inappropriate Speech: 4.4 ± 3.78
[1]; low dose, baseline
  ABC_C_Subscale_1 Irritability: 7.6 ± 7.44
  ABC_C_Subscale_2 Lethargy: 3.6 ± 2.97
  ABC_C_Subscale_3 Stereotypy: 3.8 ± 2.28
  ABC_C_Subscale_4 Hyperactivity: 7.8 ± 7.16
  ABC_C_Subscale_5 Inappropriate Speech: 5.4 ± 4.16
[1]; low dose, chronic
  ABC_C_Subscale_1 Irritability: 7.4 ± 8.02
  ABC_C_Subscale_2 Lethargy: 4.6 ± 2.70
  ABC_C_Subscale_3 Stereotypy: 4.6 ± 3.05
  ABC_C_Subscale_4 Hyperactivity: 7.2 ± 8.07
  ABC_C_Subscale_5 Inappropriate Speech: 4.6 ± 3.29
[2]
  WJ auditory attention: trending increase
[3]; human, in vivo
  low dose (5 mg BID) versus high dose (15 mg BID) in terms of adverse effects and signal (treatment efficacy): superior over high dose
[3]; low dose (5 mg twice per day), patients having undetectable peripheral FMRP
  responsiveness to treatment: responsive; also recorded: showed responsiveness
[3]; low dose, male patients having undetectable peripheral FMRP
  clinical improvement: Clinical improvement
[3]; [4]
  responsiveness to treatment: not responsive
